# Data taken from ChEMBL document CHEMBL3797052 (Eur J Med Chem, 2016).
# Assays:
# [1] = Antiproliferative activity against human UACC257 cells assessed as cell growth at 10^-7 M after 48 hrs by sulforhodamine B assay; assay type: functional; conditions: UACC-257, 48 h, read-out: Activity
# [2] = Antiproliferative activity against human HCC2998 cells assessed as cell growth at 10^-7 M after 48 hrs by sulforhodamine B assay; assay type: functional; conditions: HCC 2998, 48 h, read-out: Activity
# [3] = system: NCI-H23; test: Antiproliferative activity against human NCI-H23 cells assessed as cell growth at 10^-7 M after 48 hrs by sulforhodamine B assay; assay type: functional; conditions: NCI-H23, 48 h, read-out: Activity
# [4] = system: NCI-H322M; test: Antiproliferative activity against human NCI-H322M cells assessed as cell growth at 10^-6 M after 48 hrs by sulforhodamine B assay; assay type: functional; conditions: read-out: Activity
# [5] = Antiproliferative activity against human NCI-ADR-RES cells assessed as cell growth at 10^-6 M after 48 hrs by sulforhodamine B assay; assay type: functional; conditions: read-out: Activity
# [6] = system: NCI-H23; test: Antiproliferative activity against human NCI-H23 cells assessed as cell growth at 10^-8 M after 48 hrs by sulforhodamine B assay; assay type: functional; conditions: NCI-H23, 48 h, read-out: Activity
# [7] = Antiproliferative activity against human SF539 cells assessed as cell growth at 10^-6 M after 48 hrs by sulforhodamine B assay; assay type: functional; conditions: SF-539, 48 h, read-out: Activity
# [8] = system: KM12; test: Antiproliferative activity against human KM12 cells assessed as cell growth at 10^-8 M after 48 hrs by sulforhodamine B assay; assay type: functional; conditions: KM12, 48 h, read-out: Activity
# [9] = Antiproliferative activity against human LOXIMVI cells assessed as cell growth at 10^-4 M after 48 hrs by sulforhodamine B assay; assay type: functional; conditions: LOX IMVI, read-out: Activity
# [10] = system: Malme-3M; test: Antiproliferative activity against human MALME-3M cells assessed as cell growth at 10^-4 M after 48 hrs by sulforhodamine B assay; assay type: functional; conditions: read-out: Activity
# [11] = Antiproliferative activity against human SKOV3 cells assessed as cell growth at 10^-7 M after 48 hrs by sulforhodamine B assay; assay type: functional; conditions: SK-OV-3, 48 h, read-out: Activity
# [12] = system: HT-29; test: Antiproliferative activity against human HT-29 cells assessed as cell growth at 10^-8 M after 48 hrs by sulforhodamine B assay; assay type: functional; conditions: HT-29, 48 h, read-out: Activity
# [13] = Antiproliferative activity against human HOP62 cells assessed as cell growth at 10^-6 M after 48 hrs by sulforhodamine B assay; assay type: functional; conditions: HOP-62, 48 h, read-out: Activity
# [14] = system: CCRF-CEM; test: Antiproliferative activity against human CCRF-CEM cells assessed as cell growth at 10^-8 M after 48 hrs by sulforhodamine B assay; assay type: functional; conditions: read-out: Activity
# [15] = biological target: hERG (KCNH2) (Homo sapiens, UniProt Q12809); test: Inhibition of human ERG assessed as reduction in channel current at 100 uM by automated patch-clamp electrophysiology assay
# Chain of hERG (KCNH2) (Q12809 whole entry): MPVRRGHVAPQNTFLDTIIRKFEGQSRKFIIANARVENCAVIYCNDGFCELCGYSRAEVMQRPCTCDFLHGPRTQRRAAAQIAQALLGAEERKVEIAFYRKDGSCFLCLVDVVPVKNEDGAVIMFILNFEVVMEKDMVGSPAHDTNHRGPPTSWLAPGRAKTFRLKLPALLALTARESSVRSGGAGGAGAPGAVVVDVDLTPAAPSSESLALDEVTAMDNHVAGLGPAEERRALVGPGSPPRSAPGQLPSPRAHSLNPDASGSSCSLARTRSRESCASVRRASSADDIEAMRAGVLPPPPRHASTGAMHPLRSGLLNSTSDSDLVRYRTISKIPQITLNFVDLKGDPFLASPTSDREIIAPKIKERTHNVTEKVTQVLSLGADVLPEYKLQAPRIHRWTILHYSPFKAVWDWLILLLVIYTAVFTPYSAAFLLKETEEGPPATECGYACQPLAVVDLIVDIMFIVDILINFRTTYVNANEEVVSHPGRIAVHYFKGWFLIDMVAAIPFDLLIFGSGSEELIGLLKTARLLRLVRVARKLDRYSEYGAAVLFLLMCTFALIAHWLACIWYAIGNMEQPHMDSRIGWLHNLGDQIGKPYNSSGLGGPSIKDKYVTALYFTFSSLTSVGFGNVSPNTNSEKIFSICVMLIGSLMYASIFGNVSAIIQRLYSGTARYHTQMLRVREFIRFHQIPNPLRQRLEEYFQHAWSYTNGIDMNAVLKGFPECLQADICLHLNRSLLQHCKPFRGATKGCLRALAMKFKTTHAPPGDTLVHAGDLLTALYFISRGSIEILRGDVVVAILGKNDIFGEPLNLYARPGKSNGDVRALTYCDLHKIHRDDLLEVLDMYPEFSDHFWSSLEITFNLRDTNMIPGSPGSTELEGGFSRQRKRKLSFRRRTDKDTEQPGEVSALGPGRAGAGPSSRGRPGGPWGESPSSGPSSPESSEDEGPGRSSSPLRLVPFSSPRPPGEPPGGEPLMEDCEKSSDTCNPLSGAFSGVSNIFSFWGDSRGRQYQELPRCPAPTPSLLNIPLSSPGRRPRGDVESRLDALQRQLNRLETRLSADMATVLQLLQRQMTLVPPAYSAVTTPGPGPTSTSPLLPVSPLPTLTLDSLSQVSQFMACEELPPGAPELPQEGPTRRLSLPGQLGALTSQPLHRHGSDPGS
# [16] = biological target: Voltage-gated inwardly rectifying potassium channel KCNH2 (Homo sapiens, UniProt Q12809); test: Inhibition of human ERG assessed as reduction in channel current by automated patch-clamp electrophysiology assay
# Chain of Voltage-gated inwardly rectifying potassium channel KCNH2 (Q12809 whole entry): as above
# [17] = Antiproliferative activity against human SW620 cells assessed as cell growth at 10^-6 M after 48 hrs by sulforhodamine B assay; assay type: functional; conditions: SW-620, 48 h, read-out: Activity
# [18] = system: SR; test: Antiproliferative activity against human SR cells assessed as cell growth at 10^-7 M after 48 hrs by sulforhodamine B assay; assay type: functional; conditions: read-out: Activity
# [19] = system: NCI-H460; test: Antiproliferative activity against human NCI-H460 cells assessed as cell growth at 10^-7 M after 48 hrs by sulforhodamine B assay; assay type: functional; conditions: NCI-H460, 48 h, read-out: Activity
# [20] = Antiproliferative activity against human SNB75 cells assessed as cell growth at 10^-4 M after 48 hrs by sulforhodamine B assay; assay type: functional; conditions: SNB-75, 48 h, read-out: Activity
# [21] = Antiproliferative activity against human HCT15 cells assessed as cell growth at 10^-7 M after 48 hrs by sulforhodamine B assay; assay type: functional; conditions: HCT-15, 48 h, read-out: Activity
# [22] = Antiproliferative activity against human Caki1 cells assessed as growth inhibition after 48 hrs by sulforhodamine B assay; assay type: functional; conditions: CAKI-1, 48 h
# [23] = Antiproliferative activity against human HOP62 cells assessed as cell growth at 10^-8 M after 48 hrs by sulforhodamine B assay; assay type: functional; conditions: HOP-62, 48 h, read-out: Activity
# [24] = system: SK-MEL-5; test: Antiproliferative activity against human SK-MEL-5 cells assessed as cell growth at 10^-8 M after 48 hrs by sulforhodamine B assay; assay type: functional; conditions: SK-MEL-5, 48 h, read-out: Activity
# [25] = system: EKVX; test: Antiproliferative activity against human EKVX cells assessed as growth inhibition after 48 hrs by sulforhodamine B assay; assay type: functional
# [26] = system: K562; test: Antiproliferative activity against human K562 cells assessed as cell growth at 10^-4 M after 48 hrs by sulforhodamine B assay; assay type: functional; conditions: K562, 48 h, read-out: Activity
# [27] = system: NCI-H23; test: Antiproliferative activity against human NCI-H23 cells assessed as cell growth at 10^-4 M after 48 hrs by sulforhodamine B assay; assay type: functional; conditions: NCI-H23, 48 h, read-out: Activity
# [28] = system: NCI-H460; test: Antiproliferative activity against human NCI-H460 cells assessed as cell growth at 10^-6 M after 48 hrs by sulforhodamine B assay; assay type: functional; conditions: NCI-H460, 48 h, read-out: Activity
# [29] = system: SK-MEL-5; test: Antiproliferative activity against human SK-MEL-5 cells assessed as cell growth at 10^-6 M after 48 hrs by sulforhodamine B assay; assay type: functional; conditions: SK-MEL-5, 48 h, read-out: Activity
# [30] = Antiproliferative activity against human IGROV1 cells assessed as growth inhibition after 48 hrs by sulforhodamine B assay; assay type: functional; conditions: IGROV-1, 48 h
# [31] = Antiproliferative activity against human LOXIMVI cells assessed as growth inhibition after 48 hrs by sulforhodamine B assay; assay type: functional; conditions: LOX IMVI
# [32] = system: SK-MEL-2; test: Antiproliferative activity against human SK-MEL-2 cells assessed as cell growth at 10^-7 M after 48 hrs by sulforhodamine B assay; assay type: functional; conditions: SK-MEL-2, 48 h, read-out: Activity
# [33] = system: NCI-H522; test: Antiproliferative activity against human NCI-H522 cells assessed as cell growth at 10^-6 M after 48 hrs by sulforhodamine B assay; assay type: functional; conditions: NCI-H522, 48 h, read-out: Activity
# [34] = system: MDA-MB-231; test: Antiproliferative activity against human MDA-MB-231 cells assessed as cell growth at 10^-8 M after 48 hrs by sulforhodamine B assay; assay type: functional; conditions: MDA-MB-231, 48 h, read-out: Activity
# [35] = Antiproliferative activity against human OVCAR8 cells assessed as cell growth at 10^-7 M after 48 hrs by sulforhodamine B assay; assay type: functional; conditions: OVCAR-8, 48 h, read-out: Activity
# [36] = system: M14; test: Antiproliferative activity against human M14 cells assessed as cell growth at 10^-7 M after 48 hrs by sulforhodamine B assay; assay type: functional; conditions: M14, 48 h, read-out: Activity
# [37] = system: MDA-MB-435; test: Antiproliferative activity against human MDA-MB-435 cells assessed as cell growth at 10^-6 M after 48 hrs by sulforhodamine B assay; assay type: functional; conditions: MDA-MB-435, 48 h, read-out: Activity
# [38] = read-out: LC50 (the source's name)
smiles,measurement,setting,value
CNC(=O)c1cc(Oc2ccc3nc(NC(=O)Nc4ccc(Cl)c(Cl)c4)sc3c2)ccn1,growth at 0.1 µM,[1],92%
same,growth at 0.1 µM,[2],101%
same,growth at 0.1 µM,[3],92%
same,growth at 1 µM,[4],84%
same,growth at 1 µM,[5],103%
same,growth at 0.01 µM,[6],95%
same,growth at 1 µM,[7],100%
same,growth at 0.01 µM,[8],98%
same,growth at 100 µM,[9],-62%
same,growth at 100 µM,[10],-75%
same,growth at 0.1 µM,[11],115%
same,growth at 0.01 µM,[12],107%
same,growth at 1 µM,[13],119%
same,growth at 0.01 µM,[14],102%
same,inhibition at 100 µM,[15],47.9%
same,IC50,[16],> 100 µM
same,growth at 1 µM,[17],128%
same,growth at 0.1 µM,[18],105%
same,growth at 0.1 µM,[19],109%
same,growth at 100 µM,[20],-75%
same,growth at 0.1 µM,[21],97%
same,GI50,[22],2.46 µM
same,TGI,[22],6.3 µM
same,CC50,[22]; [38],> 100 µM
same,growth at 0.01 µM,[23],105%
same,growth at 0.01 µM,[24],99%
same,GI50,[25],3.3 µM
same,TGI,[25],> 100 µM
same,CC50,[25]; [38],> 100 µM
same,growth at 100 µM,[26],53%
same,growth at 100 µM,[27],6%
same,growth at 1 µM,[28],107%
same,growth at 1 µM,[29],94%
same,GI50,[30],2.55 µM
same,TGI,[30],6.75 µM
same,CC50,[30]; [38],> 100 µM
same,GI50,[31],1.82 µM
same,TGI,[31],3.52 µM
same,CC50,[31]; [38],6.82 µM
same,growth at 0.1 µM,[32],118%
same,growth at 1 µM,[33],97%
same,growth at 0.01 µM,[34],89%
same,growth at 0.1 µM,[35],101%
same,growth at 0.1 µM,[36],96%
same,growth at 1 µM,[37],93%
